{
  "source": "EPA's ToxValDB 9.5 (doi:10.2903/j.efsa.2006.86r)",
  "key": {"[1]": {"test_system": "Anas platyrhynchos"}, "[2]": {"test_system": "Apis mellifera", "details": "acute, mortality"}, "[3]": {"test_system": "Canidae", "details": "chronic; duration: 1 years; oral; Dog Other; clinical chemistry"}, "[4]": {"test_system": "Colinus virginianus"}, "[5]": {"test_system": "Coturnix japonica", "details": "acute; oral; mortality"}, "[6]": {"test_system": "Daphnia magna", "details": "chronic/long-term; duration: 21 days"}, "[7]": {"test_system": "Oncorhynchus mykiss"}, "[8]": {"test_system": "Rattus norvegicus"}, "[9]": {"test_system": "Tagia sp."}, "[10]": {"test_system": "Aphidius rhopalosiphi", "experiment": "LR50; higher = less toxic", "details": "acute; duration: 48 hours; reproduction"}, "[11]": {"test_system": "Typhlodromus pyri", "experiment": "LR50; higher = less toxic", "details": "acute; duration: 48 hours; reproduction"}},
  "data": [
    {"smiles": "CCS(=O)CCSP(=O)(OC)OC", "note": "(stereo unspecified) [Oxydemeton-methyl]", "values": [
      {"measurement": "NOEC", "setting": "[1]; reproductive", "result": 7.65, "unit": "mg/kg-day"},
      {"measurement": "NOEL", "setting": "[1]; short-term, oral, feed, mortality", "result": 119, "unit": "mg/kg-day"},
      {"measurement": "LD50", "setting": "[2]; duration: 48 hours, oral, unspecified", "result": 0.2, "unit": "µg/piece"},
      {"measurement": "LD50", "setting": "[2]; duration: 72 hours, dermal", "result": 0.175, "unit": "µg/piece"},
      {"measurement": "NOAEL", "setting": "[3]", "result": 0.1, "unit": "mg/kg-day"},
      {"measurement": "LD50", "setting": "[4]; acute, oral, M, mortality", "result": 34, "unit": "mg/kg"},
      {"measurement": "NOEC", "setting": "[4]; reproduction developmental", "result": 0.97, "unit": "mg/kg-day"},
      {"measurement": "NOEL", "setting": "[4]; short-term, oral, diet, mortality", "result": 56.6, "unit": "mg/kg-day"},
      {"measurement": "LD50", "setting": "[5]", "result": 29, "unit": "mg/kg"},
      {"measurement": "NOEC", "setting": "[6]", "result": 0.027, "unit": "mg/L"},
      {"measurement": "LC50", "setting": "[7]; acute, duration: 96 hours, mortality", "result": 17, "unit": "µg/mL"},
      {"measurement": "NOEC", "setting": "[7]; chronic/long-term, duration: 98 days", "result": 1.8, "unit": "mg/L"},
      {"measurement": "LD50", "setting": "[8]; acute, oral, mortality", "result": 48, "unit": "mg/kg"},
      {"measurement": "NOAEL", "setting": "[8]; chronic, duration: 2 years, clinical chemistry", "result": 0.03, "unit": "mg/kg-day"},
      {"measurement": "NOAEL", "setting": "[8]; reproduction developmental, M, reproduction", "result": 0.15, "unit": "mg/kg-day"},
      {"measurement": "NOAEL", "setting": "[8]; short-term, duration: 14 days, oral, clinical chemistry", "result": 0.15, "unit": "mg/kg-day"},
      {"measurement": "NOAEL", "setting": "[8]; subchronic, duration: 90 days, oral, clinical chemistry", "result": 0.1, "unit": "mg/kg-day"},
      {"measurement": "LC50", "setting": "[9]; acute, duration: 14 days, mortality", "result": 115, "unit": "mg/kg"},
      {"measurement": "NOEC", "setting": "[9]; chronic/long-term, duration: 56 days, reproduction", "result": 412, "unit": "g/ha"},
      {"measurement": "LR50", "setting": "[10]", "result": 42.5, "unit": "g/ha"},
      {"measurement": "LR50", "setting": "[11]", "result": 143, "unit": "g/ha"}
    ]}
  ]
}
